Patent US20240409556A1, “BENZOPIPERAZINE AND RELATED ANALOGS FOR INHIBITING YAP/TAZ-TEAD” (Springworks Therapeutics, Inc., priority 2023, published 2024)

Each compound was assayed on YAP/TAZ-TEAD transcription (assay: Reporter gene assay for measuring the inhibition of YAP/TAZ-TEAD transcription (TEAD-responsive element luciferase reporter in Hek293T cells)). Settings: 24 hours incubation.
Format: cell-based
Method in brief: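 HEK293T cells transiently transfected with a TEAD-responsive luciferase reporter were exposed to compounds for 24 h at 37° C/5% CO2, then luminescence was read. Percent inhibition normalised to vehicle (0%) and positive-control inhibitor (100%); IC50 derived.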
In the case of `O=C(O)C1(F)CCN2c3ccccc3N(c3ccc(C(F)(F)F)cc3)CC2C1` [123-D2, (6aS,8S)- or (6aR,8S)- or (6aR,8R)- or (6aS,8R)-8-fluoro-5-(4-(trifluoromethyl)phenyl)-6,6a,7,8,9,10-hexahydro-5H-pyrido[1,2-a]quinoxaline-8-carboxylic acid], the IC50 is reported as < 1000 nM.
`COc1ccc2c(n1)OC(CNC(C)=O)CN2c1ccc(C(F)(F)F)cc1` (centres unmarked) [compound 73, N-((6-methoxy-1-(4-(trifluoromethyl)phenyl)-2,3-dihydro-1H-pyrido[2,3-b][1,4]oxazin-3-yl)methyl)acetamide] was tested, and the IC50 was < 1000 nM.
`COc1ccc2c(n1)OC(CNC(C)=O)CN2c1ccc(C(F)(F)F)cc1` (single isomer, unassigned) [73-En1, (R)- or (S)-N-((6-methoxy-1-(4-(trifluoromethyl)phenyl)-2,3-dihydro-1H-pyrido[2,3-b][1,4]oxazin-3-yl)methyl)acetamide] was tested, and the IC50 was > 10000 nM.
For `CC(=O)N1CC(=O)N2c3ccccc3N(c3ccc(C(F)(F)F)cc3)CC2C1` (single isomer, unassigned) [79-En2, (R)- or (S)-3-acetyl-6-(4-(trifluoromethyl)phenyl)-2,3,4,4a,5,6-hexahydro-1H-pyrazino[1,2-a]quinoxalin-1-one], the IC50 was < 1000 nM.
In the case of `CC(=O)N1CC2CN(c3ccc(C(F)(F)F)cc3)c3ccccc3N2CC1C(=O)O` (stereo not drawn) [compound 91, (cis)- or (trans)-3-acetyl-6-(4-(trifluoromethyl)phenyl)-2,3,4,4a,5,6-hexahydro-1H-pyrazino[1,2-a]quinoxaline-2-carboxylic acid], the IC50 is reported as < 1000 nM.
`C=CC(=O)N1CCN2c3ncccc3N(c3ccc(C(F)(F)F)cc3)CC2C1` (centres unmarked) [28-En2, 1-(5-(4-(trifluoromethyl)phenyl)-5,6,6a,7,9,10-hexahydro-8H-pyrazino[1,2-a]pyrido[3,2-e]pyrazin-8-yl)prop-2-en-1-one] was tested, and the IC50 was < 1000 nM.
With `CC(=O)N1CCN2c3ncccc3N(c3ccc(C(F)(F)F)cn3)CC2C1` (centres unmarked) [compound 53, 1-(5-(5-(trifluoromethyl)pyridin-2-yl)-5,6,6a,7,9,10-hexahydro-8H-pyrazino[1,2-a]pyrido[3,2-e]pyrazin-8-yl)ethan-1-one] the IC50 was < 1000 nM.
`O=C(O)C1(F)CCN2c3ccccc3N(c3ccc(C(F)(F)F)cc3)CC2C1` [123-D4, (6aS,8S)- or (6aR,8S)- or (6aR,8R)- or (6aS,8R)-8-fluoro-5-(4-(trifluoromethyl)phenyl)-6,6a,7,8,9,10-hexahydro-5H-pyrido[1,2-a]quinoxaline-8-carboxylic acid] was tested, and the IC50 was < 1000 nM.
`C=CC(=O)N1CCN2C(C1)CN(c1ccc(C(F)(F)F)cc1)C1CCC12` (single isomer, unassigned) [42(Dia2), 1-(3-(4-(trifluoromethyl)phenyl)decahydro-6H-cyclobuta[e]pyrazino[1,2-a]pyrazin-6-yl)prop-2-en-1-one] was tested, and the IC50 was < 1000 nM.

Same assay, conditions: Homo sapiens, HEK-293T, 24 h, 24 hours incubation
`O=C(NO)C1CCN2c3ccccc3N(c3ccc(C(F)(F)F)cc3)CC2C1` [116B-En1, (6aS,8S)- or (6aR,8S)- or (6aR,8R)- or (6aS,8R)-N-hydroxy-5-(4-(trifluoromethyl)phenyl)-6,6a,7,8,9,10-hexahydro-5H-pyrido[1,2-a]quinoxaline-8-carboxamide] was tested, and the IC50 was < 1000 nM.
With `COC(=O)N[C@@H]1C[C@@H]2CN(c3ccc(C(F)(F)F)cc3)c3cccnc3N2C1` [compound 83, methyl ((6aR,8R)-5-(4-(trifluoromethyl)phenyl)-5,6,6a,7,8,9-hexahydropyrido[3,2-e]pyrrolo[1,2-a]pyrazin-8-yl)carbamate] the IC50 was < 1000 nM.
For `FC(F)(F)c1ccc(N2CCN(Cc3cccnc3)c3ccccc32)cc1` [compound 64, 1-(pyridin-3-ylmethyl)-4-(4-(trifluoromethyl)phenyl)-1,2,3,4-tetrahydroquinoxaline], the IC50 was 1000 to 10000 nM.
For `CNC(=O)O[C@H]1C[C@@H]2CN(c3ccc(C(F)(F)F)cc3)c3cccnc3N2C1` [55-En1, (6aR,8S)-5-(4-(trifluoromethyl)phenyl)-5,6,6a,7,8,9-hexahydropyrido[3,2-e]pyrrolo[1,2-a]pyrazin-8-yl methylcarbamate], the IC50 was < 1000 nM.
With `CS(=O)(=O)N1CCN2c3ccccc3N(c3ccc(C(F)(F)F)cc3)CC2C1` (centres unmarked) [compound 16, 3-(methylsulfonyl)-6-(4-(trifluoromethyl)phenyl)-2,3,4,4a,5,6-hexahydro-1H-pyrazino[1,2-a]quinoxaline] the IC50 was < 1000 nM.
In the case of `CC(=O)NCC1CN(c2ccc(C(F)(F)F)cc2)c2ccccc2N1CCC(=O)O` (centres unmarked) [compound 8, 3-(2-(acetamidomethyl)-4-(4-(trifluoromethyl)phenyl)-3,4-dihydroquinoxalin-1(2H)-yl)propanoic acid], the IC50 is reported as > 10000 nM.
`O=C(O)C1CCN2c3c(Cl)cccc3N(c3ccc(C(F)(F)F)cc3)CC2C1` (stereo not drawn) [compound 105, (cis)- or (trans)-1-chloro-5-(4-(trifluoromethyl)phenyl)-6,6a,7,8,9,10-hexahydro-5H-pyrido[1,2-a]quinoxaline-8-carboxylic acid] was tested, and the IC50 was < 1000 nM.
With `CC(=O)N1CCN2C(=O)CN(c3ccc(C(F)(F)F)cc3)CC2C1` (centres unmarked) [compound 44, 8-acetyl-2-(4-(trifluoromethyl)phenyl)octahydro-4H-pyrazino[1,2-a]pyrazin-4-one] the IC50 was > 10000 nM.
For `Cc1nc[nH]c1CN1CCN(c2ccc(C(F)(F)F)cc2)c2ccccc21` [compound 66, 1-((4-methyl-1H-imidazol-5-yl)methyl)-4-(4-(trifluoromethyl)phenyl)-1,2,3,4-tetrahydroquinoxaline], the IC50 was < 1000 nM.
`CC(=O)NC[C@H]1CN(c2ccc(C(F)(F)F)cc2)c2cccnc2N1` [39-En1, (S)-N-((1-(4-(trifluoromethyl)phenyl)-1,2,3,4-tetrahydropyrido[2,3-b]pyrazin-3-yl)methyl)acetamide] was tested, and the IC50 was < 1000 nM.
With `C=CC(=O)NCC1CN(c2ccc(C(F)(F)F)cc2)c2ccccc2N1CCC(=O)O` (centres unmarked) [compound 7, 3-(2-(acrylamidomethyl)-4-(4-(trifluoromethyl)phenyl)-3,4-dihydroquinoxalin-1(2H)-yl)propanoic acid] the IC50 was > 10000 nM.
`O=C(c1cn[nH]c1)N1CCN(c2ccc(C(F)(F)F)cc2)c2ccccc21` [compound 74, (1H-pyrazol-4-yl)(4-(4-(trifluoromethyl)phenyl)-3,4-dihydroquinoxalin-1(2H)-yl)methanone] was tested, and the IC50 was < 1000 nM.
For `CC(=O)NCC1CN(c2ccc(C(F)(F)F)cn2)c2cccnc2O1` (centres unmarked) [compound 78, N-((1-(5-(trifluoromethyl)pyridin-2-yl)-2,3-dihydro-1H-pyrido[2,3-b][1,4]oxazin-3-yl)methyl)acetamide], the IC50 was 1000 to 10000 nM.
With `CC(=O)N[C@@H]1C[C@@H]2CN(c3ccc(C(F)(F)F)cc3)c3cc(C)cnc3N2C1` [compound 93, N-((6aR,8R)-3-methyl-5-(4-(trifluoromethyl)phenyl)-5,6,6a,7,8,9-hexahydropyrido[3,2-e]pyrrolo[1,2-a]pyrazin-8-yl)acetamide] the IC50 was < 1000 nM.
Compound `O=Cc1ccc(CN2CCN3c4ccccc4N(c4ccc(C(F)(F)F)cc4)CC3C2)cc1O` (centres unmarked) [compound 30, 2-hydroxy-4-((6-(4-(trifluoromethyl)phenyl)-1,2,4,4a,5,6-hexahydro-3H-pyrazino[1,2-a]quinoxalin-3-yl)methyl)benzaldehyde] has an IC50 of 1000 to 10000 nM.
For `FC(F)(F)c1ccc(N2CCN(Cc3ncc[nH]3)c3ccccc32)cc1` [compound 62, 1-((1H-imidazol-2-yl)methyl)-4-(4-(trifluoromethyl)phenyl)-1,2,3,4-tetrahydroquinoxaline], the IC50 was < 1000 nM.
Compound `CC(=O)NCC1CN(c2ccc(C(F)(F)F)cc2)c2ccc(C(F)(F)F)nc2O1` (centres unmarked) [compound 76, N-((6-(trifluoromethyl)-1-(4-(trifluoromethyl)phenyl)-2,3-dihydro-1H-pyrido[2,3-b][1,4]oxazin-3-yl)methyl)acetamide] has an IC50 of 1000 to 10000 nM.
With `O=C(O)C1CCN2c3ccccc3N(c3ccc(C(F)(F)F)cc3)CC2C1` (stereo not drawn) [65A, (cis)- or (trans)-5-(4-(trifluoromethyl)phenyl)-6,6a,7,8,9,10-hexahydro-5H-pyrido[1,2-a]quinoxaline-8-carboxylic acid] the IC50 was < 1000 nM.
For `O=C(O)C1CCN(c2ccccc2Nc2ccc(C(F)(F)F)cc2)CC1` [compound 111, 1-(2-((4-(trifluoromethyl)phenyl)amino)phenyl)piperidine-4-carboxylic acid], the IC50 was < 1000 nM.
`CNC(=O)N[C@@H]1C[C@@H]2CN(c3ccc(C(F)(F)F)cc3)c3cccnc3N2C1` [compound 84, 1-methyl-3-((6aR,8R)-5-(4-(trifluoromethyl)phenyl)-5,6,6a,7,8,9-hexahydropyrido[3,2-e]pyrrolo[1,2-a]pyrazin-8-yl)urea] was tested, and the IC50 was < 1000 nM.
For `O=C(O)C1CCN(c2ncccc2Nc2ccc(C(F)(F)F)cc2)CC1` [compound 124, 1-(3-((4-(trifluoromethyl)phenyl)amino)pyridin-2-yl)piperidine-4-carboxylic acid], the IC50 was < 1000 nM.
Work on `O=C(O)CN1CCN2c3ccccc3N(c3ccc(C(F)(F)F)cc3)CC2C1` (centres unmarked) [compound 31, 2-(6-(4-(trifluoromethyl)phenyl)-1,2,4,4a,5,6-hexahydro-3H-pyrazino[1,2-a]quinoxalin-3-yl)acetic acid] yielded an IC50 of 1000 to 10000 nM.
In the case of `CC(=O)NCCN1CCN(c2ccc(C(F)(F)F)cc2)c2ccccc21` [compound 57, N-(2-(4-(4-(trifluoromethyl)phenyl)-3,4-dihydroquinoxalin-1(2H)-yl)ethyl)acetamide], the IC50 is reported as < 1000 nM.
In the case of `C=CC(=O)NCC1CN(c2ccc(C(F)(F)F)cc2)c2ccccc2N1CC(=O)NC` (centres unmarked) [compound 12, N-((1-(2-(methylamino)-2-oxoethyl)-4-(4-(trifluoromethyl)phenyl)-1,2,3,4-tetrahydroquinoxalin-2-yl)methyl)acrylamide], the IC50 is reported as < 1000 nM.
With `CCc1ccc2c(n1)OC(CNC(C)=O)CN2c1ccc(C(F)(F)F)cc1` (centres unmarked) [compound 82, N-((6-ethyl-1-(4-(trifluoromethyl)phenyl)-2,3-dihydro-1H-pyrido[2,3-b][1,4]oxazin-3-yl)methyl)acetamide] the IC50 was < 1000 nM.
In the case of `COC(=O)N1CCN2c3ccccc3N(c3ccc(C(F)(F)F)cc3)CC2C1` (centres unmarked) [compound 20, methyl 6-(4-(trifluoromethyl)phenyl)-1,2,4,4a,5,6-hexahydro-3H-pyrazino[1,2-a]quinoxaline-3-carboxylate], the IC50 is reported as < 1000 nM.
